# Reference: patent US20080039434A1, “Treatment of Interstitial Cystitis with Vitamin D Compounds” (BioXell S. p.A., priority 2004, published 2008)
# How the values were obtained:
# Assay type in all cases: in vivo, mouse
# total IgE = assay: Serum total IgE ELISA, allergic IC in mice; conditions: 75 ug/kg oral vs vehicle; ovalbumin-sensitized BALB/c mice
# Experimental: (§1) Mice (BALB/c, females 8 weeks old, weight 18-20 g, Charles River, Calco ITA) were sensitized by injecting 10 ug/mouse of chicken ovalbumin from Sigma (OVA, grade V) in the presence of 4 mg of alum (SERVA, Germany) by intraperitoneal injection, once a week for 4 weeks. This induces a sustained level of IgE detectable in serum.
# (§2) One or two weeks after the last immunization boost, sensitized mice were anesthetized (1.5% Isoflurane) and then trans-urethrally catheterized (24 gauge, ¾ in.; Angiocath, Becton-Dickson). Slight digital pressure was applied the lower abdomen to drain the urine.
# The urinary bladders were instilled with either 150 ul of either saline or OVA alone, (1 mg/150 ul) infused at a slow rate to avoid trauma and vesico-ureteral reflux and repeated twice within a 30-min interval with the syringe kept in place on the catheter for at least 30 min. Intravesical challenge was repeated 7-10 days after the first one with the same procedure. […]
# Serum total IgE levels were measured by using a commercially available kit (BD Opteia, Mouse IgE ELISA Set Cat. No. 555248) and following manufacturer's instructions. […] After reaction stopping (H2SO4 1M, 50 ul/well) absorbance at 450 nm was recorded within 30 minutes.
# ovalbumin specific IgE = assay: Ova-specific IgE ELISA, allergic IC in mice; conditions: 75 ug/kg oral vs vehicle; ovalbumin-sensitized BALB/c mice
# Experimental: as §1, §2
# (§3) The urinary bladders were instilled with either 150 ul of either saline or OVA alone, (1 mg/150 ul) infused at a slow rate to avoid trauma and vesico-ureteral reflux and repeated twice within a 30-min interval with the syringe kept in place on the catheter for at least 30 min. Intravesical challenge was repeated 7-10 days after the first one with the same procedure.
# Treatment Group: 10 mice were treated with oral vitamin D3 analogue (1-alpha-fluoro-25-hydroxy-16,23Ediene-26,27-bishomo-20-epi-cholecalciferol) Compound “B” for 14 days (daily dose of either 30 or 75 ug/kg). […]
# Ova-specific IgE were measured according to the following procedure. […] Finally, 450 nm absorbance was recorded after the reaction was stopped.
# IL-13 = assay: Taq-Man analysis of bladder mRNA, allergic IC in mice: IL-13; conditions: ovalbumin challenged
# Experimental: as §1, §2, §3
# (§4) An ethanol stock solution of Compound B (1 mg/ml) was dissolved in Miglyol vehicle at the appropriate concentration. Control animals received the vehicle containing the same amount of ethanol. Drug (or vehicle) treatment was carried out by daily gavage after weighing the animal. Drug solution was prepared calculating a final volume of 100 ul/10 grams body weight, and treatment was started on the day of the first intravesical ovalbumin challenge, maintained daily, but discontinued over the weekends, for 12 days total treatment. FIG. 7 illustrates the timeline of the experiment.
# (§5) Total RNA was extracted from one half of bladder by using RNeasy Mini kit (Qiagen), treated with DNase 1 (Qiagen) and reverse transcription performed with Reverse Transcription Reagent (Applied Biosystems) with Random Hexamers (according to the manufacturer's instructions). cDNA was synthesized from 1 ug of RNA. Real-Time PCR was performed in 96-well optical reaction plates (Applied Biosystems). For each sample we amplified both the target gene and the housekeeping gene (HPRT) in different wells (singleplex) and in duplicate. The amplification Master Mix was prepared according to the following protocol (volumes refer to a single well with a final volume of 40 ul/well)): 2× TaqMan® R Universal PCR Master Mix (Applied Biosystems, 4304437): 20 ul; 20× Assay target gene: 2 ul; H2O: 8 ul; cDNA: 10 ul. Reaction was run on an SDS 7000 (Applied Biosystems) instruments, with the following amplification program: 2′ at 50° C.; 10′ at 95° C.; 15″ at 95° C. and 1′ at 60° C. for 40 cycles; Cycle threshold (Ct) values were exported into Excel Worksheets for analysis and relative quantitations were performed using the ΔCt method. All primers used carried the FAM reporter.
# (§6) Experiments in Example 7 were performed according to the general procedures described previously in Example 6. Mice were challenged with saline (untreated) or ovalbumin (treatment with vehicle or one of Compounds C-I at a dosage indicated in Table 6 in ug/kg).
# MCPT2 = assay: Taq-Man analysis of bladder mRNA, allergic IC in mice: MCPT2; conditions: ovalbumin challenged; 30 and 75 ug/kg oral, dose dependent; pooled samples
# Experimental: as §1
# One or two weeks after the last immunization boost, sensitized mice were anesthetized (1.5% Isoflurane) and then trans-urethrally catheterized (24 gauge, ¾ in.; Angiocath, Becton-Dickson). Slight digital pressure was applied the lower abdomen to drain the urine. […]
# Total RNA was extracted from one half of bladder by using RNeasy Mini kit (Qiagen), treated with DNase 1 (Qiagen) and reverse transcription performed with Reverse Transcription Reagent (Applied Biosystems) with Random Hexamers (according to the manufacturer's instructions). cDNA was synthesized from 1 ug of RNA. […] Reaction was run on an SDS 7000 (Applied Biosystems) instruments, with the following amplification program: 2′ at 50° C.; 10′ at 95° C.; 15″ at 95° C. and 1′ at 60° C. for 40 cycles; Cycle threshold (Ct) values were exported into Excel Worksheets for analysis and relative quantitations were performed using the ΔCt method. […]
# FcεR1α = assay: Taq-Man analysis of bladder mRNA, allergic IC in mice: FcεR1α; conditions: ovalbumin challenged
# Experimental: as §1, §2, §3, §4, §5, §6
# MMCP4 = assay: Taq-Man analysis of bladder mRNA, allergic IC in mice: MMCP4; conditions: ovalbumin challenged; 75 ug/kg oral; individual animals
# Experimental: as §1, §2, §3, §4, §5, §6
# [1] = 75 ug/kg oral, individual animals
# [2] = 30 and 75 ug/kg oral, dose dependent, pooled samples
smiles,measurement,setting,value
"C=C1/C(=C\C=C2/CCC[C@]3(C)C([C@@H](C)C/C=C/C(O)(CC)CC)=CC[C@@H]23)C[C@@H](O)C[C@@H]1F [Compound B, 1-alpha-fluoro-25-hydroxy-16,23E-diene-26,27-bishomo-20-epi-cholecalciferol]",total amount of IgE in serum,total IgE,no significant changes
same,ovalbumin specific IgE in serum,ovalbumin specific IgE,no significant changes
same,expression of inflammatory marker IL-13,IL-13; [1],down-modulates
same,expression of inflammatory marker IL-13,IL-13; [2],significantly reduces
same,expression of inflammatory marker MCPT2,MCPT2,significantly reduces
same,expression of inflammatory marker FcεR1α,FcεR1α; [1],down-modulates
same,expression of inflammatory marker FcεR1α,FcεR1α; [2],significantly reduces
same,expression of inflammatory marker MMCP4,MMCP4,down-modulates
